# Experimental data published in patent US9512178B2, “Neurogenic brain-derived neurotrophic factor peptides” (Research Foundation for Mental Hygiene, Inc., priority 2012, dated 2016).
# Legend:
# BDNF and TrkB = assay: Induction of BDNF and TrkB expression after pre-treatment with CHX or K252a; format: cell-based, mouse; conditions: 0.1 μM, two days
# Protocol: Peptides were dissolved in water in serial dilutions of 10 mM, 1 mM, 100 μM and 10 μM from which the necessary amount was added directly to the culture medium to a final concentration of 0.05 μM, 1 μM, or 10 μM. The BDNF (Peprotech, NJ, USA) was used as a reference in concentrations of 20 ng/ml (0.79 nM) and 100 ng/ml (3.95 nM). Cycloheximide (CHX) (Sigma-Aldrich, St Louis, Mo., USA) was used for blocking protein synthesis. CHX original stock was 100 mg/ml (355.4 mM) in DMSO; from a second stock of 35.54 mM in DMSO, the dilutions were made to the final concentrations of 100 μM. The K252a (CALBIOCHEM/EMD) was used to inhibit the TrkB Receptor. From a stock of 100 μM in DMSO, K252a was diluted to a final working concentration of 200 nM. The E18 primary hippocampal cells were pre-treated with CHX or K252a 1 h prior to the addition of the peptides or BDNF and a time course of these treatments for 15 min, 60 min and 2 days was studied.
# To evaluate whether the effect of B-5 and B-3 in induction of the expression of BDNF and TrkB was via the activation of the TrkB receptor and required signal transduction via TrkB and new protein synthesis, mouse embryonic E18 cultured hippocampal cells were pre-treated with the protein synthesis inhibitor, cycloheximide (CHX) or the Trk inhibitor K252a for 1 h, and then added Peptide B-5 at a concentration of 0.1 μM (the dose that gave the maximum induction of BDNF expression, FIGS. 5A and B) or BDNF 20 ng/ml as a positive control (FIG. 7C,D). A time course of these treatments was studied with Peptide B-5 or BDNF for 15 min, 60 min and two days.
# [1] = test system: mouse E18 hippocampal neurons; assay: Immunocytochemistry of neuronal markers; format: cell-based; conditions: 1 μM, 5 days, vs vehicle
# Protocol: For recovering proteins, cells were seeded in 6-well dishes coated with poly-D-lysine (SigmaAldrich, St. Louis, Mo., USA), 50 μg/ml for an overnight, at a density of 1×10^6 cells/well. For immunocytochemistry, cells were seeded onto 5 mm cover slips coated with poly-D-lysine at a density of 7×10^4 cells/well in 100 μl Defined Medium in 96 well plates. The cells were cultured for four days in vitro prior to the beginning of the treatment with the peptides. The treatment with the peptides was done for five days (starting at DIV 4 and finishing at DIV 9). The culture medium was exchanged completely at the beginning of the treatment with a test peptide (at DIV4), and every 72 h until DIV 9.
# After 5 days of treatment, cells seeded on cover slips were fixed in 4% paraformaldehyde (Electron Microscopy Sciences, PA, USA) for 30 min at room temperature, and then washed 2× in PBS for storage at 4° C. prior to staining. Cells were permeabilized in 0.2% Triton-X-100 in PBS for 30 min at 25° C. and incubated in blocking buffer (1% BSA w/v, 0.2% Triton-X-100 v/v in PBS) for 60 min at 25° C. The cells were then incubated with primary antibodies at the appropriate dilutions in blocking buffer at 4° C. for 16 h, washed 3×10 min with 0.2% Triton X100 in PBS, and incubated with fluorescently-labeled secondary antibodies diluted in blocking buffer for 1 h at 25° C. in the dark. Cover slips were washed 3×10 min in 0.2% Triton X-100 in PBS and mounted on glass slides with GelMount (Biomeda, Foster City, Calif., USA). The following primary antibodies were used: rabbit polyclonal anti-GFAP (1:500; Sigma-Aldrich, St. Louis, Mo., USA); rabbit polyclonal anti-NFM (1:200; Chemicon/Millipore, Billerica, Mass., USA); mouse monoclonal anti-NeuN (1:300; Millipore, Billerica, Mass., USA); rabbit polyclonal anti-Tuj-1, 0—III-tubulin (1:800; Covance, Emeryville, Calif., USA); mouse monoclonal SMI 52 to the adult isoforms of MAP-2, MAP2a,b (1:1000; Covance, Emeryville, Calif., USA); rabbit polyclonal anti-synapsin I (1:2000; Stressgen, Farmingdale, N.Y., USA); and rabbit monoclonal anti-PSD95 (1:100; Cell Signaling, Danvers, Mass., USA). Secondary goat anti-mouse and anti-rabbit IgGs conjugated with AlexaFluor 594 were used at 1:1000 (Molecular Probes, Carlsbad, Calif., USA). The nuclei were stained with 1 μM TOPRO in PBS (Invitrogen, Grand Island, N.Y., USA). Mounted cover slips were examined using 40× oil immersion objective of a Nikon 90i fluorescent microscope equipped with Nikon C1 three-laser confocal system and a Nikon DS U1 digital camera, and analyzed with EZ-C1 Viewer Image software, Version 6.0. […]
substance,measurement,setting,value
Ac-I-K-R-G-CONH2 [Peptide B-5],increase in the expression of BDNF in the presence of CHX,BDNF and TrkB; CHX pre-treatment 1 h,inhibition of the increase
same,increase in the expression of TrkB in the presence of CHX,BDNF and TrkB; CHX pre-treatment 1 h,inhibition of the increase
same,induction of the expression of BDNF in cells treated with K252a,BDNF and TrkB; K252a pre-treatment 1 h,no more significant induction
same,induction of the expression of TrkB in cells treated with K252a,BDNF and TrkB; K252a pre-treatment 1 h,no more significant induction
same,expression of 0-III-tubulin (immunocytochemistry),[1],induced an increase
same,expression of MAP2 (immunocytochemistry),[1],induced an increase
same,expression of NFM (immunocytochemistry),[1],induced an increase
same,expression of NeuN (immunocytochemistry),[1],induced an increase
